Assay [1] addresses EZH2 (Homo sapiens, UniProt Q15910). In words: EZH2 nuc BSA Brij 1.5 (IC50): rPRC2, biotinylated oligonucleosome substrate, 3H SAM FlashPlate. To be noted: 2 nM EZH2, 0.2 μM biotinylated oligonucleosomes, 0.2 μM 3H SAM, 3.6 μM H3K27me3 peptide. The assay is classed as biochemical. Here is the method:
EZH2 Nuc BSA Brij 1.5 (IC50):
Assays were carried out by mixing rPRC2 together with biotinylated oligonucleosome substrates in the presence of the radio-labeled enzyme co-factor, S-adenosyl-L-methionine (^3H SAM) (Perkin Elmer) and monitoring the enzymatically mediated transfer of tritiated methyl groups from ^3H SAM to histone lysine residues. The amount of resulting tritiated methyl histone product was measured by first capturing the biotinylated oligonucleosomes in streptavidin (SAV) coated FlashPlates (Perkin Elmer), followed by a wash step to remove un-reacted ^3H SAM, and then counting on a TopCount NXT 384 well plate scintillation counter (Perkin Elmer). The final assay conditions for EZH2 were as follows: 50 mM Tris Buffer pH 8.5, 1 mM DTT, 69 μM Brij-35 detergent, 5.0 mM MgCl2, 0.1 mg/mL BSA, 0.2 μM ^3H SAM, 0.2 μM biotinylated oligonucleosomes, 3.6 μM H3K27me3 peptide and 2 nM EZH2.
Compound IC50 Measurements were Obtained as Follows:
Compounds were first dissolved in 100% DMSO as 10 mM stock solutions. Ten point dose response curves were generated by dispensing varying amounts of the 10 mM compound solution in 10 wells of the 384 well plate (Echo; Labcyte), pure DMSO was then used to backfill the wells to insure all wells have the same amount of DMSO. A 12.5 μL volume of the HMT enzyme, H3K27me3 peptide and oligonucleosome substrate in assay buffer was added to each well of the assay plate using a Multidrop Combi (ThermoFisher). Compounds were pre-incubated with the enzyme for 20 min, followed by initiation of the methyltransferase reaction by addition of 12.5 μL of ^3H SAM in assay buffer (final volume=25 μL). The final concentrations of compounds ranged from a top default concentration of 80 μM down to 0.16 μM in ten 2-fold dilution steps. Reactions were carried out for 60 minutes and quenched with 20 μL per well of 1.96 mM SAH, 50 mM Tris pH 8.5, 200 mM EDTA. Stopped reactions were transferred to SAV coated Flashplates (Perkin Elmer), incubated for 120 min, washed with a plate washer, and then read on the TopCount NXT (1.0 min/well) to measure the amount of methyl histone product formed during the reaction. The amount of methyl histone product was compared with the amount of product formed in the 0% and 100% inhibition control wells allowing the calculation of % Inhibition in the presence of the individual compounds at various concentrations. IC50's were computed using a 4 parameter fit non-linear curve fitting software package (XLFIT, part of the database package, ActivityBase (IDBS)) where the four parameters were IC50, Hill slope, pre-transitional baseline (0% INH), and post-transitional baseline (100% INH); with the latter two parameters being fixed to zero and 100%, respectively, by default.

Assay [2] concerns H3K27me3 mark. In words: H3K27me3 Alpha Hela Assay (AlphaLISA). The assay is classed as cell-based. The settings on record: Hela cells, read-out: EZH2 Cell H3K27me3 Alpha HeLa (EC50 K27me3). Here is the method: EC50 Measurements for Inhibitors in HeLa Cell Assays
H3K27me3 Alpha Hela Assay (AlphaLISA). Ten different doses of each test compound (in a series of 3-fold dilutions) were plated in duplicate 384-well tissue culture treated plates (Catalog #781080; Greiner Bio One; Monroe, N.C.). Hela cells grown in culture were trypsinized and counted using a Countess® cell counter (Catalog # C10281; Life Technologies, Grand Island, N.Y.). Cell were diluted to 67,000 cells per mL in 10% DMEM (Catalog #10569-010 Life Technologies, Grand Island, N.Y.) and 15 μL (1,000 cells) were plated into each well using the Biotek MicroFlo™ Select Dispenser (BioTek Instruments, Inc. Vermont, USA),) of the 384-well plate. Plates were incubated at 37° C./5% CO2 for 72 hrs. One of the duplicate plates was processed for HeLa assay and the other for viability.
To the plate processed for AlphaLISA was added 5 μL per well Cell-Histone Lysis buffer (1×) (Catalog # AL009F1 Perkin Elmer; Waltham, Mass.) and the plate was incubated at RT for 30 minutes on a plate shaker with low speed (Model#4625-Q Thermo Scientific; Waltham, Mass.). Then, 10 μL per well Histone Extraction buffer (catalog # AL009F2; Perkin Elmer; Waltham, Mass.) was added and the plate further incubated at RT for 20 min on plate shaker with low speed. To each well was then added 10 μL per well of a 5× mix of anti-K27me3 acceptor beads plus Biotinylated anti-Histone H3 (C-ter) Antibody (diluted to 3 nM final) (Catalog #AL118 Perkin Elmer; Waltham, Mass.). Dilution of the acceptor beads and then anti-Histone H3 was with 1× Histone Detection buffer (Catalog # AL009F3 Perkin Elmer; Waltham, Mass.) which was produced diluted from the 10× stock provided. The plate was sealed with an aluminum plate sealer and incubated at 23° C. for 60 min. We then added 10 μL 5× solution of Streptavidin Donor beads (Catalog #6760002 Perkin Elmer; Waltham, Mass.) (20 μg/mL final in 1× Histone Detection Buffer), sealed the plate with Aluminum plate sealer and incubated at 23° C. for 30 min. The plates were then read using an EnVision-Alpha Reader (model #2104 Perkin Elmer; Waltham, Mass.).
Data from both assays was analyzed using Assay Assistant (Constellation Pharmaceuticals In-house product) and Activity Base (IDBS Ltd, Surrey, UK) template. Data files were imported to Assay Assistant and assay conditions were specified. A unique Analysis ID was created and the data files exported to Activity Base. An analysis template was created on Activity Base to measure dose-dependent inhibition of H3K27me3 mark and cell viability respectively. Readout of DMSO wells were used to normalize the data. Resulting curves were fitted using Activity base software Model 205 (IDBS Ltd, Surrey, UK). The data was checked for quality, validated and integrated in excel format using SARview (IDBS Ltd, Surrey, UK).
(Bead proximity is the source of the signal in Alpha formats.)

Assay [3] has as its target T1, PRC2 containing wt EZH2 (Homo sapiens, UniProt Q15910).
T1 construct: made in house
The assay is described as follows: EZH2 pep BSA Brij 4.0 LowE (IC50): 3H-SAM incorporation into biotinylated H3 peptide. The assay is classed as biochemical. Here is the method:
EZH2 Pep BSA Brij 4.0 LowE (IC50):
Compound potencies were assessed through incorporation of ^3H-SAM into a biotinylated H3 peptide. Specifically, PRC2 containing wt EZH2 (20 pM), (pentameric complexes prepared in-house) was pre-incubated with ^3H-SAM (0.9 μM), 2 μM H3K27me3 activating peptide (H2N-RKQLATKAAR(Kme3)SAPATGGVKKP-amide) and compounds (as 10 point duplicate dose response titrations in DMSO, final assay 0.8% DMSO (v/v)) for 120 min in 50 mM Tris (pH 8.5), 1 mM DTT, 0.07 mM Brij-35, 0.1% BSA, and 0.8% DMSO in a total volume of 12.5 μl. Reaction was initiated with biotinylated H3 substrate peptide (H2N-RKQLATKAAR(Kme1)SAPATGGVKKP-NTPEGBiot) as a 2 μM stock in 12.5 μl of buffer and allowed to react at room temperature for 5 h. Quenching was accomplished by addition of 20 μl of STOP solution (50 mM Tris (pH 8.5), 200 mM EDTA, 2 mM SAH). 35 μl of the quenched solution was transferred to Streptavidin Flashplates, incubated overnight, washed, and read in a TopCount Reader (Perkin Elmer). IC50s were calculated relative to fully active and no enzyme control wells using non-linear least square four parameter fits.

Where [4] appears, read: EZH2 pep BSA Brij 4.0 LowE (IC50), 20 pM PRC2 wt EZH2, 0.9 μM 3H-SAM, biotinylated H3 peptide substrate, 2 μM H3K27me3 activating peptide.
Where [5] appears, read: read-out: EZH2 pep BSA Brij 4.0 LowE (IC50); 20 pM PRC2 wt EZH2, 0.9 μM 3H-SAM, biotinylated H3 peptide substrate, 2 μM H3K27me3 activating peptide.

The record followed here is patent US20180037568A1, “MODULATORS OF METHYL MODIFYING ENZYMES, COMPOSITIONS AND USES THEREOF” (Constellation Pharmaceuticals, Inc., priority 2015, published 2018).

SMILES strings stand for the structures. Like-named read-outs stand apart in the source and are kept apart here. Some results are limits rather than exact numbers.

T1 sequence (Q15910 whole entry): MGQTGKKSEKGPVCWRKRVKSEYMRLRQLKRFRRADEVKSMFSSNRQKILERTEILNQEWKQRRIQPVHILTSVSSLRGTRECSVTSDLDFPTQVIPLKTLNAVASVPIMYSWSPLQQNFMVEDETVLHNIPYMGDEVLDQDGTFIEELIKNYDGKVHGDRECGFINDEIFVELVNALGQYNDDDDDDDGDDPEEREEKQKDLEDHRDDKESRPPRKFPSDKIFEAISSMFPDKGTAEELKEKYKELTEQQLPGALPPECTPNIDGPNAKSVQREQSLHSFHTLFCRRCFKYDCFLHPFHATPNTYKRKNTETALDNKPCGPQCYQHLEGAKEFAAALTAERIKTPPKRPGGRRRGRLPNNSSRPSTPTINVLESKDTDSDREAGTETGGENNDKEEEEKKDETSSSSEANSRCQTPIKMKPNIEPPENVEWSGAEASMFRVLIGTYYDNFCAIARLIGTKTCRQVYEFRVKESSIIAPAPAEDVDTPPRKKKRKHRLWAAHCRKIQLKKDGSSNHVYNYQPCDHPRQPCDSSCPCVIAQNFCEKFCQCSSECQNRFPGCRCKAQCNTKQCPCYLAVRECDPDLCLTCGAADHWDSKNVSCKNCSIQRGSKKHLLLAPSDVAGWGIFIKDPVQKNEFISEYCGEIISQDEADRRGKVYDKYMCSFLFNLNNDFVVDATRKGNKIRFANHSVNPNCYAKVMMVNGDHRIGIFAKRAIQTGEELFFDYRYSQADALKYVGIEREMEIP
T1 sequence (O75530 whole entry partner): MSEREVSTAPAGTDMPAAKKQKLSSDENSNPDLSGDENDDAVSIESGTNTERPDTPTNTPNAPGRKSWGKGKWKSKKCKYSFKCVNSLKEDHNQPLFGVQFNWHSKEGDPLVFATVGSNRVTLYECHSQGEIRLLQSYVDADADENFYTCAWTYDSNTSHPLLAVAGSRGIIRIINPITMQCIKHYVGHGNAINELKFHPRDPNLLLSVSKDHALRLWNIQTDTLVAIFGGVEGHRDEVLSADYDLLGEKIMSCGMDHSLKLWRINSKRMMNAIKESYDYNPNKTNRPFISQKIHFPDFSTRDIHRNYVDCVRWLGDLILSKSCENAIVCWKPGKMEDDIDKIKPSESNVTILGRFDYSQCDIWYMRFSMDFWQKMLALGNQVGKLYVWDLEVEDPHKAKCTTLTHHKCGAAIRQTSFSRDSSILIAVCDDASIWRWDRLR
T1 sequence (Q15022 whole entry partner): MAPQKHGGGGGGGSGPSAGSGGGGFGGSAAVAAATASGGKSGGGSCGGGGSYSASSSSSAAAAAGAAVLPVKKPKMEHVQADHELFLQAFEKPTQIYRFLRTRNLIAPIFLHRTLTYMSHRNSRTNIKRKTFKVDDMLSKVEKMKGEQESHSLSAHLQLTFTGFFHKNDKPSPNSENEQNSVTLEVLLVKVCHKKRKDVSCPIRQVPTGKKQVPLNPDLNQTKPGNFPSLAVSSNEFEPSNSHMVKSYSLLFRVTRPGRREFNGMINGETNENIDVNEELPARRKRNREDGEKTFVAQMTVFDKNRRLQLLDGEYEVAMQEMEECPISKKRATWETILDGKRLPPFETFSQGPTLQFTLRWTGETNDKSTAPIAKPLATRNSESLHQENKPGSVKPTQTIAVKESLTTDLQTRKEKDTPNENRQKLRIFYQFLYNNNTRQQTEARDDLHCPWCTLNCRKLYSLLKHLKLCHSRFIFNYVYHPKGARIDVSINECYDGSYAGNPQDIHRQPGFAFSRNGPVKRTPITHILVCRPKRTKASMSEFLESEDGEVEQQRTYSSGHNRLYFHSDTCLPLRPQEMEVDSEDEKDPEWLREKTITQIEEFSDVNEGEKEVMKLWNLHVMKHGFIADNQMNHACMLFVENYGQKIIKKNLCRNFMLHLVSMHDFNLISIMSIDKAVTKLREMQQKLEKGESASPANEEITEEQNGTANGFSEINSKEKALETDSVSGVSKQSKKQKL
T1 sequence (Q09028 whole entry partner): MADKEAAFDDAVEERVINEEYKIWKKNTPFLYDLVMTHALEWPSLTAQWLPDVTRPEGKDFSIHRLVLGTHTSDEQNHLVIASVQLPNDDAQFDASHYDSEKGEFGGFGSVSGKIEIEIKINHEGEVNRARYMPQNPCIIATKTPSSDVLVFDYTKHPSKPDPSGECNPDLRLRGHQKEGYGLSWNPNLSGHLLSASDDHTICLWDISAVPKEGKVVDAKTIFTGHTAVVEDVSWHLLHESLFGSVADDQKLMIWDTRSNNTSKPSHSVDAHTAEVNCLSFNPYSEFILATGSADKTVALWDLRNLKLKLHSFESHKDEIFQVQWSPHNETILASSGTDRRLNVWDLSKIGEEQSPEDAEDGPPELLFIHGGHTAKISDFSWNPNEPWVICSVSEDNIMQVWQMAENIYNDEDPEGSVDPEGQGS
T1 sequence (Q6ZN18 whole entry partner): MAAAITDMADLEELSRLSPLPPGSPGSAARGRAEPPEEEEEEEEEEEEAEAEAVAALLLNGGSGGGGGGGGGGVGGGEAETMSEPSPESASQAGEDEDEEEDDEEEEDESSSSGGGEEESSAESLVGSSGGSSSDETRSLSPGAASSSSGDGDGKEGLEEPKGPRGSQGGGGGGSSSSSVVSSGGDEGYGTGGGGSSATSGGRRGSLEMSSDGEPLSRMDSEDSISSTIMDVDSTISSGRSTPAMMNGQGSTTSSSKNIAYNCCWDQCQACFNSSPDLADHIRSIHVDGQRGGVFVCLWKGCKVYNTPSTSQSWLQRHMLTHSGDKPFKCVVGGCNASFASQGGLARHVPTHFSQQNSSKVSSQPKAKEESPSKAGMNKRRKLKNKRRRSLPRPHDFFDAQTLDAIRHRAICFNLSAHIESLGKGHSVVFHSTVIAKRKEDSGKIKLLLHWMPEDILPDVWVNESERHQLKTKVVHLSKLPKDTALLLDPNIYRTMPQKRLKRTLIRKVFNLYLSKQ
Sequence of EZH2 (Q15910 whole entry): as the sequence (Q15910 whole entry) above
Sequence of EZH2 (O75530 whole entry partner): as the sequence (O75530 whole entry partner) above
Sequence of EZH2 (Q15022 whole entry partner): as the sequence (Q15022 whole entry partner) above

On to `COc1cc(C)[nH]c(=O)c1CNC(=O)c1c(C)n(C(C)C2CCNC(C(F)(F)F)C2)c2ccccc12` (single isomer, unassigned) [Compound 12, N-((4-methoxy-6-methyl-2-oxo-1,2-dihydropyridin-3-yl)methyl)-2-methyl-1-(1-(2-(trifluoromethyl)piperidin-4-yl)ethyl)-1H-indole-3-carboxamide], for which the 50% inhibitory concentration (IC50) (commonly the point on the concentration scale where inhibition reaches its midpoint) in assay [1] (EZH2 nuc BSA Brij 1.5 (IC50)) is below 100 nM. Regarding `COc1cc(C)[nH]c(=O)c1CNC(=O)c1c(C)n(C(C)C2CCN(CC3CC3)C(C(F)(F)F)C2)c2ccccc12` (single isomer, unassigned) [Compound 38, 1-(1-(1-(cyclopropylmethyl)-2-(trifluoromethyl)piperidin-4-yl)ethyl)-N-((4-methoxy-6-methyl-2-oxo-1,2-dihydropyridin-3-yl)methyl)-2-methyl-1H-indole-3-carboxamide], the EC50 (as a rule, the concentration needed to bring the measured effect to its halfway point) in assay [2] (Homo sapiens, HeLa, 72 h) was above 2000 nM. This compound also gave a 50% inhibitory concentration (IC50) in assay [1] (EZH2 nuc BSA Brij 1.5 (IC50)) below 100 nM. For the compound `COc1cc(C)[nH]c(=O)c1CNC(=O)c1c(C)n(C(C)C2CCN(CC(F)F)C(C)C2)c2ccccc12` (single isomer, unassigned) [Compound 41, 1-(1-(1-(2,2-difluoroethyl)-2-methylpiperidin-4-yl)ethyl)-N-((4-methoxy-6-methyl-2-oxo-1,2-dihydropyridin-3-yl)methyl)-2-methyl-1H-indole-3-carboxamide], the EC50 in assay [2] (72 hrs) is below 400 nM. Moreover, in assay [1] (read-out: EZH2 nuc BSA Brij 1.5 (IC50)), the IC50 was below 100 nM. Regarding `Cc1cc(C)c(CNC(=O)c2c(C)n(C(C)C3CCNC(C(F)(F)F)C3)c3ccccc23)c(=O)[nH]1` (single isomer, unassigned) [Compound 16, N-((4,6-dimethyl-2-oxo-1,2-dihydropyridin-3-yl)methyl)-2-methyl-1-(1-(2-(trifluoromethyl)piperidin-4-yl)ethyl)-1H-indole-3-carboxamide], the IC50 in assay [1] (EZH2 nuc BSA Brij 1.5 (IC50)) is below 100 nM. Same read-out and setting: the result for `COc1cc(C)[nH]c(=O)c1CNC(=O)c1c(C)n(C(C)C2CCN(C)c3ccccc32)c2ccccc12` (centres unmarked) [Compound 3, N-((4-methoxy-6-methyl-2-oxo-1,2-dihydropyridin-3-yl)methyl)-2-methyl-1-(1-(1-methyl-1,2,3,4-tetrahydroquinolin-4-yl)ethyl)-1H-indole-3-carboxamide] reads below 100 nM. Turning to `COc1cc(C)[nH]c(=O)c1CNC(=O)c1c(C)n(C(C)C2CCN(C)C(=O)C2)c2ccccc12` (centres unmarked) [Compound 11, N-((4-methoxy-6-methyl-2-oxo-1,2-dihydropyridin-3-yl)methyl)-2-methyl-1-(1-(1-methyl-2-oxopiperidin-4-yl)ethyl)-1H-indole-3-carboxamide], in assay [2] (Homo sapiens, HeLa, 72 h), the EC50 was above 2000 nM. Moreover, the IC50 in assay [1] (EZH2 nuc BSA Brij 1.5 (IC50)) is below 100 nM. Consider `COc1cc(C)[nH]c(=O)c1CNC(=O)c1c(C)n(C(C)C2CCNC(CC(F)(F)F)C2)c2ccccc12` (centres unmarked) [Compound 90], for which the concentration giving a half-maximal response (EC50) in assay [2] (72 hrs) is 400 to 2000 nM. In assay [3] (setting [4]), the IC50 was below 100 nM. The like results for `COc1cc(C)[nH]c(=O)c1CNC(=O)c1c(C)n(C(C)C2CCN(CC(C)(F)F)C(C)C2)c2ccccc12` (centres unmarked) [Compound 72] were, in that order, above 2000 nM and 100 to 1000 nM. As to `CCC1CC(C(C)n2c(C)c(C(=O)NCc3c(C)cc(C)[nH]c3=O)c3ccccc32)CCN1CC(F)F` (centres unmarked) [Compound 69], the concentration giving a half-maximal response (EC50) in assay [2] (72 hrs) is above 2000 nM. For the same compound, in assay [3] (setting [5]), the IC50 is below 100 nM.

With `COc1cc(C)[nH]c(=O)c1CNC(=O)c1c(C)n(C(C)C2CCN(CC(F)F)C(C)C2)c2ccccc12` (centres unmarked) [Compound 46], the concentration for a half-maximal effect (EC50) in assay [2] (72 hrs) is below 400 nM. Moreover, in assay [3] (setting [5]), the IC50 was below 100 nM. As for `COc1cc(C)[nH]c(=O)c1CNC(=O)c1c(C)n(C(C)C2CCN(C)C(c3cccc(C#N)c3)C2)c2ccccc12` (centres unmarked) [Compound 95], in assay [2] (Homo sapiens, HeLa, 72 h), the 50% effective concentration (EC50) was in the range of 400 to 2000 nM. The compound further returned an IC50 in assay [3] (setting [4]) below 100 nM. Take `COc1cc(C)[nH]c(=O)c1CNC(=O)c1c(C)n(C(C)C2CCN(C)C(c3cccc(C(=O)O)c3)C2)c2ccccc12` (centres unmarked) [Compound 97]: the concentration for a half-maximal effect (EC50) in assay [2] (72 hrs) was above 2000 nM. Also, the half-maximal inhibitory concentration (IC50) in assay [3] (setting [4]) is below 100 nM. As to `COc1cc(C)[nH]c(=O)c1CNC(=O)c1c(C)n(C(C)C2CCN(C)C(c3ccc(F)cc3)C2)c2ccccc12` (single isomer, unassigned) [Compound 34, 1-(1-(2-(4-fluorophenyl)-1-methylpiperidin-4-yl)ethyl)-N-((4-methoxy-6-methyl-2-oxo-1,2-dihydropyridin-3-yl)methyl)-2-methyl-1H-indole-3-carboxamide], the 50% effective concentration (EC50) in assay [2] (72 hrs) was above 2000 nM. In assay [3] (20 pM PRC2 wt EZH2, 0.9 μM 3H-SAM, biotinylated H3 peptide substrate, 2 μM H3K27me3 activating peptide; read-out: EZH2 pep BSA Brij 4.0 LowE (IC50)), the IC50 lay within 100 to 1000 nM.
